Like-named read-outs stand apart in the source and are kept apart here.
Key:
[1] = molecular target: T1, Potassium channel (Rattus norvegicus, UniProt Q63563); experiment: Potassium channel activating action: relaxation of KCl-contracted rat aorta spiral specimen; settings: for inhibition at 10 µM: 10^-5 mol; for inhibition at 1 µM: 10^-6 mol; for inhibition at 0.1 µM: 10^-7 mol
T1 construct: was extracted and formed into a spiral specimen; from tissue; host or cells: aorta of male Wistar rat (spiral strip)
T1 sequence (Q63563 1-1545 isoform Q63563-2): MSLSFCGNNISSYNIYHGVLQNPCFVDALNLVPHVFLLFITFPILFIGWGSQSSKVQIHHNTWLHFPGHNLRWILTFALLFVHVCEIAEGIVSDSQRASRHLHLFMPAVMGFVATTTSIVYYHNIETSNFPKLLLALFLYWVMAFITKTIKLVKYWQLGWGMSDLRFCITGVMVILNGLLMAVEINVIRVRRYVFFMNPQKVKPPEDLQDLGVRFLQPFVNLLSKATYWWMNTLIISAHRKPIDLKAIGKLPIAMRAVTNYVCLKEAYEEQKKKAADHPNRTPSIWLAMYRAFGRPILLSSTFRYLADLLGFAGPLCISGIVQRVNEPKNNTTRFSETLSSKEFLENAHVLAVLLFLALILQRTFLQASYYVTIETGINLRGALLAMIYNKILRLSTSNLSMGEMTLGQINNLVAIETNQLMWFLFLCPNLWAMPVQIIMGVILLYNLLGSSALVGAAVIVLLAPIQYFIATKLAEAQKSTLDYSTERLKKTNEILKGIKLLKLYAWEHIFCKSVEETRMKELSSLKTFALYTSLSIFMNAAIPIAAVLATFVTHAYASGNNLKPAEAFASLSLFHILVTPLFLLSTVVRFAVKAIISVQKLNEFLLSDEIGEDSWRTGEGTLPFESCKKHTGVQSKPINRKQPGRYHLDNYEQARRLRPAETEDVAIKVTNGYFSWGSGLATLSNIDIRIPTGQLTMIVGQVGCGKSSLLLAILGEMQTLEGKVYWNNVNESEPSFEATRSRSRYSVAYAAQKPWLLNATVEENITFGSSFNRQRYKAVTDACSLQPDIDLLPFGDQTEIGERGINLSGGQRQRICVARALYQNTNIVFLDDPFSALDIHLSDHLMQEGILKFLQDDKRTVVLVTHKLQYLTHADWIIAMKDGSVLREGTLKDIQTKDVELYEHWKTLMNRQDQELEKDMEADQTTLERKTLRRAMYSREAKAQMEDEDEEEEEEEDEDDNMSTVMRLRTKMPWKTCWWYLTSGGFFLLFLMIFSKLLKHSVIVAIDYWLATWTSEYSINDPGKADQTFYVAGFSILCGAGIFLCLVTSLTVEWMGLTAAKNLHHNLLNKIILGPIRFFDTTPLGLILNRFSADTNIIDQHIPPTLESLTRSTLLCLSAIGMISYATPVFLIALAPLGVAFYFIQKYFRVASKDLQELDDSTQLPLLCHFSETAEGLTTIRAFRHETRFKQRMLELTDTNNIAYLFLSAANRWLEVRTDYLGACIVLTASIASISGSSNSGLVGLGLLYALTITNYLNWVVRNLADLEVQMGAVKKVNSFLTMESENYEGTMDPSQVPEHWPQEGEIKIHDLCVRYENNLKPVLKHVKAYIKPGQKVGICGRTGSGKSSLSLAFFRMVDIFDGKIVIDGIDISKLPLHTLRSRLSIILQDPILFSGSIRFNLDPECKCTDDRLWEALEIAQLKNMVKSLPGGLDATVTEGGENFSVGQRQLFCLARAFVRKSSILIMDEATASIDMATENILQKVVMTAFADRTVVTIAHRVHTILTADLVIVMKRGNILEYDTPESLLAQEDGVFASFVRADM
T1 sequence (Q63664 whole entry partner): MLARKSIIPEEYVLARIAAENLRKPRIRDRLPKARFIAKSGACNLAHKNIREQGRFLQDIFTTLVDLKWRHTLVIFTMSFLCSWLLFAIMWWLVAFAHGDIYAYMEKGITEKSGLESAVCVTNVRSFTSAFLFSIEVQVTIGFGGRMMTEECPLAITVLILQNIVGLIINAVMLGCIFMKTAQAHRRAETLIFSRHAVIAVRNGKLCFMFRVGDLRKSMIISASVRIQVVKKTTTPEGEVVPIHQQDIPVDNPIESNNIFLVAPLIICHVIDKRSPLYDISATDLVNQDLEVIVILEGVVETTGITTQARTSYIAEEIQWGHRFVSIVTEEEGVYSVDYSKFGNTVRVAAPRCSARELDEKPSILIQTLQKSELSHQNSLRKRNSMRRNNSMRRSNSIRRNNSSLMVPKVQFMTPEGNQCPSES
Description: The aorta of a male Wister rat having a body weight of about 240 g was extracted and formed into a spiral specimen, which was suspended under a load of 0.5 g in a Krebs.Henselate solution (37° C.) saturated with a gas mixture of 95% oxygen+5% carbon dioxide. Then, 20 mM or 60 mM potassium chloride was added thereto, and the contraction reaction was measured by means of an isometric transducer (manufactured by Nippon Koden K.K.). When the contraction reaction by potassium chloride reached the maximum, a compound of the present invention was cumulatively added, whereupon the relaxation reaction was measured. The relaxation reaction due to the drug was determined as a relaxation rate relative to the maximum contraction by potassium chloride.

[2] = Acute toxicity test (oral); settings: mouse, in vivo, male mice, mortality after 72 hours
Description: For an acute toxicity test, ten male mice with body weights of 22 to 25 g were used as one group, and a compound of the present invention was orally administered at a dose corresponding to the body weight. From the mortality after 72 hours, LD50 was calculated by an area method.

[3] = tested on: spontaneously hypertensive rat (SHR); experiment: Blood pressure lowering activity in spontaneously hypertensive rats (oral); format: in vivo
Description: A male spontaneously hypertensive rat (SHR) of 20 weeks old was put in a cage and heated in a heating box at 45° C. for 5 minutes. SHR heated for 5 minutes was fixed to a measuring board, and a cuff for pressurizing and for blood pressure measurement was attached to the tail. As the pressurizing started, the heart rate was measured. After the rat became quiet, the maximum blood pressure was measured.
On the other hand, a compound of the present invention was dissolved or suspended in a 0.5% methyl cellulose solution and orally administered. Then, the blood pressure was measured upon expiration of 1 hour, 3 hours and 6 hours after the administration. [formula]

[4] = 20 mM KCl, read-out: Relaxation rate (%) in 20 mM KCl
[5] = 60 mM KCl, read-out: Relaxation rate (%) in 60 mM KCl

Row | SMILES | inhibition at 10 µM [1, 4] [%] | inhibition at 1 µM [1, 4] [%] | inhibition at 0.1 µM [1, 4] [%] | inhibition at 0.01 µM [1, 4] [%] | inhibition at 10 µM [1, 5] [%] | inhibition at 1 µM [1, 5] [%] | inhibition at 0.1 µM [1, 5] [%] | inhibition at 0.01 µM [1, 5] [%] | LD50 at 72 h [2] [mg/kg] | Change (%) from the value before administration ([3]; 0.1 mg/kg, 1 hr later) [%] | Change (%) from the value before administration ([3]; 0.1 mg/kg, 3 hrs later) [%] | Change (%) from the value before administration ([3]; 0.1 mg/kg, 6 hrs later) [%] | Change (%) from the value before administration ([3]; 0.3 mg/kg, 1 hr later) [%] | Change (%) from the value before administration ([3]; 0.3 mg/kg, 3 hrs later) [%] | Change (%) from the value before administration ([3]; 3 mg/kg, 1 hr later) [%] | Change (%) from the value before administration ([3]; 3 mg/kg, 3 hrs later) [%] | Change (%) from the value before administration ([3]; 3 mg/kg, 6 hrs later) [%] | Change (%) from the value before administration ([3]; 10 mg/kg, 1 hr later) [%] | Change (%) from the value before administration ([3]; 10 mg/kg, 3 hrs later) [%] | Change (%) from the value before administration ([3]; 10 mg/kg, 6 hrs later) [%] | also measured
1 | CC(=NC#N)N[C@@H]1c2cc(C#N)ccc2OC(C)(C)[C@H]1O (relative stereo) [Example 2, 6-cyano-3,4-dihydro-2,2-dimethyl-trans-4-[(N-cyano-acetimidoyl)amino]-2H-benzo[b]pyran-3-ol] | 100 | 95.6 | 30.6 | 6.8 | 5.6 | 1 | 0 | 0 | ≥ 2000 | 10 | 5 | 0 | 26 | 17 | 60 | 56 | 58 | 64 | 61 | 61 | Change (%) from the value before administration ([3]; 0.3 mg/kg, 6 hrs later): 12%; Change (%) from the value before administration ([3]; 1 mg/kg, 1 hr later): 42%; Change (%) from the value before administration ([3]; 1 mg/kg, 3 hrs later): 45%; Change (%) from the value before administration ([3]; 1 mg/kg, 6 hrs later): 26%
2 | COC(=O)C1=C(C)NC(C)=C(C(=O)OCCN(C)Cc2ccccc2)C1c1cccc([N+](=O)[O-])c1 (stereo not drawn) [Nicardipin, reference compound] | – | – | – | – | – | – | – | – | – | – | – | – | – | – | 20 | 8 | 0 | 40 | 9 | 7 | –
3 | CC(=NC#N)NC1=CC(C)(C)Oc2ccc(C#N)cc21 [Example 34, 6-cyano-2,2-dimethyl-4-[(N-cyano-acetimidoyl)amino]-2H-benzo[b]pyran] | 100 | 100 | 94.3 | 28.7 | 21.8 | 13.2 | 4.5 | 0 | ≥ 2000 | 12 | 5 | 0 | 41 | 45 | 65 | 63 | 63 | 64 | 64 | 65 | Change (%) from the value before administration ([3]; 0.3 mg/kg, 6 hrs later): 23%; Change (%) from the value before administration ([3]; 1 mg/kg, 1 hr later): 62%; Change (%) from the value before administration ([3]; 1 mg/kg, 3 hrs later): 60%; Change (%) from the value before administration ([3]; 1 mg/kg, 6 hrs later): 57%

Reference: patent publication US5095016A, “Benzopyran compounds, processes for their production and pharmaceutical compositions” (Kaken Pharmaceutical Co., Ltd., priority 1989, dated 1992)
